Literature values as cited in article PMC11944884, “Bioactive Secondary Metabolites of Two Chinese Edible Boletes, Phlebopus portentosus and Butyriboletus roseoflavus” (Molecules, 2025).

Test system: head domain of HA
Conditions: molecular docking, ref [56]; cited from earlier work

## CC[C@H](CC[C@@H](C)[C@H]1CC[C@H]2[C@@H]3CC=C4C[C@@H](O)CC[C@]4(C)[C@H]3CC[C@]12C)C(C)C [β-sitosterol]
  binding affinity to the head domain of HA: highest binding affinity
